The values below come from US8053418B2, “Anti-penicillin resistant pneumococci agent and novel 16-membered macrolide derivative” (Microbial Chemistry Research Foundation, priority 2005, dated 2011).

Type in all cases: cell-based
Assay [1] has as its system Streptococcus pneumoniae IMC B-0919 (PRSP). As to the kind of experiment: Antimicrobial activity test (MIC), clinical isolate IMC B-0919. Here is the method:
(§1) Using Streptococcus pneumoniae that include clinical isolates of PRSP, the antimicrobial activity of each of the prepared anti-PRSP agents was measured in accordance with the “determination method of minimum inhibitory concentration of drug against bacteria” of Japanese Society of Chemotherapy (for re-revised version, see Chemotherapy 29; 76, 1981).
(§2) 11 test strains of Streptococcus pneumoniae including IMC B-0919 are all clinical isolates, of which 2 strains, IMC B-0921 and IMC B-1229, are classified into penicillin susceptible Streptococcus pneumoniae (PSSP) and the remaining 9 strains are classified into penicillin-resistant Streptococcus pneumoniae (PRSP) (according to NCCLS standards).

Assay [2] relates to Streptococcus pneumoniae IMC B-0920 (PRSP). Kind of assay: Antimicrobial activity test (MIC), clinical isolate IMC B-0920. The protocol: as §1, §2
The test system of assay [3] is Streptococcus pneumoniae IMC B-0922 (PRSP). Kind of assay: Antimicrobial activity test (MIC), clinical isolate IMC B-0922. The protocol:
as §1, §2

The test system of assay [4] is Streptococcus pneumoniae IMC B-1231 (PRSP). As to the kind of experiment: Antimicrobial activity test (MIC), clinical isolate IMC B-1231. Here is the method:
as §1, §2

Assay [5] concerns Streptococcus pneumoniae IMC B-1232 (PRSP). As to the kind of experiment: Antimicrobial activity test (MIC), clinical isolate IMC B-1232. The protocol: as §1, §2
Assay [6] concerns Streptococcus pneumoniae IMC B-1233 (PRSP). As to the kind of experiment: Antimicrobial activity test (MIC), clinical isolate IMC B-1233. Here is the method:
as §1, §2

Assay [7] relates to Streptococcus pneumoniae IMC B-1234 (PRSP). Kind of assay: Antimicrobial activity test (MIC), clinical isolate IMC B-1234. Here is the method: as §1, §2
Assay [8] relates to Streptococcus pneumoniae IMC B-1235 (PRSP). As to the kind of experiment: Antimicrobial activity test (MIC), clinical isolate IMC B-1235. The protocol:
as §1, §2

Assay [9] deals with Streptococcus pneumoniae IMC B-1236 (PRSP). As to the kind of experiment: Antimicrobial activity test (MIC), clinical isolate IMC B-1236. The protocol: as §1, §2
Assay [10] relates to Streptococcus pneumoniae IMC B-0921 (PSSP). As to the kind of experiment: Antimicrobial activity test (MIC), clinical isolate IMC B-0921. The protocol: as §1, §2
Assay [11] concerns Streptococcus pneumoniae IMC B-1229 (PSSP). Kind of assay: Antimicrobial activity test (MIC), clinical isolate IMC B-1229. Here is the method:
as §1, §2

Where [12] appears, read: PRSP clinical isolate IMC B-0919.
Where [13] appears, read: PRSP clinical isolate IMC B-0920.
Where [14] appears, read: PRSP clinical isolate IMC B-0922.
Where [15] appears, read: PRSP clinical isolate IMC B-1231.
The mark [16] stands for this setting: PRSP clinical isolate IMC B-1232.
Where [17] appears, read: PRSP clinical isolate IMC B-1233.
Setting [18] is: PRSP clinical isolate IMC B-1234.
Setting [19] is: PRSP clinical isolate IMC B-1235.
Where [20] appears, read: PRSP clinical isolate IMC B-1236.
Where [21] appears, read: PSSP clinical isolate IMC B-0921.
Where [22] appears, read: PSSP clinical isolate IMC B-1229.
[23] abbreviates: Streptococcus pneumoniae IMC B-0919, PRSP.
Where [24] appears, read: Streptococcus pneumoniae IMC B-0920, PRSP.
Where [25] appears, read: Streptococcus pneumoniae IMC B-0922, PRSP.
The mark [26] stands for this setting: Streptococcus pneumoniae IMC B-1231, PRSP.
[27] abbreviates: Streptococcus pneumoniae IMC B-1232, PRSP.
[28] abbreviates: Streptococcus pneumoniae IMC B-1233, PRSP.
The mark [29] stands for this setting: Streptococcus pneumoniae IMC B-1234, PRSP.
The mark [30] stands for this setting: Streptococcus pneumoniae IMC B-1235, PRSP.
Setting [31] is: Streptococcus pneumoniae IMC B-1236, PRSP.
The mark [32] stands for this setting: Streptococcus pneumoniae IMC B-0921, PSSP.
Where [33] appears, read: Streptococcus pneumoniae IMC B-1229, PSSP.

Values after ≈ are worked out from the molar mass of the structure shown.

Usually MIC stands for the smallest concentration in the dilution series that meets the test's criterion for growth inhibition. A low value points to inhibition by little substance. Consider `CCC1OC(=O)CCC(C)C(OC2OC(C)CC(N(C)C)C2O)C(CC=O)CC(C)C(=O)C=CC(C)=CC1CNC(C)=O` (stereo not drawn) [MKT-3201], for which the minimum inhibitory concentration (MIC) amounted to 0.78 µg/mL (≈ 1.29 µM) in assay [1] (setting [12]); 0.78 µg/mL (≈ 1.29 µM) in [2] (setting [13]); 0.39 µg/mL (≈ 0.643 µM) in assay [3] (setting [14]); 1.56 µg/mL (≈ 2.57 µM) in assay [4] (setting [15]); 0.39 µg/mL (≈ 0.643 µM) in [5] (setting [16]); 0.39 µg/mL (≈ 0.643 µM) in assay [6] (setting [17]). For the same compound, the MIC in [7] (setting [18]) came to 0.39 µg/mL (≈ 0.643 µM); in [8] (setting [19]), 12.5 µg/mL (≈ 20.6 µM); in assay [9] (setting [20]), 50 µg/mL (≈ 82.4 µM); in [10] (setting [21]), 0.2 µg/mL (≈ 0.33 µM); in assay [11] (setting [22]), 0.2 µg/mL (≈ 0.33 µM).
As for `CC=CC=CC(=O)OCC1C=C(C)C=CC(=O)C(C)CC(CC=O)C(OC2OC(C)CC(N(C)C)C2O)C(C)CCC(=O)OC1CC` (stereo not drawn) [MKT-2110], the minimal inhibitory concentration (MIC) stood at 0.05 µg/mL (≈ 0.0758 µM) in assay [1] (setting [23]); 0.20 µg/mL (≈ 0.303 µM) in assay [2] (setting [24]); 0.10 µg/mL (≈ 0.152 µM) in [3] (setting [25]); 25 µg/mL (≈ 37.9 µM) in assay [4] (setting [26]); 0.20 µg/mL (≈ 0.303 µM) in assay [5] (setting [27]); 0.10 µg/mL (≈ 0.152 µM) in assay [6] (setting [28]). Further, the MIC in assay [7] (setting [29]) came to 0.10 µg/mL (≈ 0.152 µM); in assay [8] (setting [30]), 50 µg/mL (≈ 75.8 µM); in assay [9] (setting [31]), 12.5 µg/mL (≈ 18.9 µM); in assay [10] (setting [32]), 0.10 µg/mL (≈ 0.152 µM); in assay [11] (setting [33]) it was 0.20 µg/mL (≈ 0.303 µM).
Consider `CCC1OC(=O)CCC(C)C(OC2OC(C)CC(N(C)C)C2O)C(CC=O)CC(C)C(=O)C=CC(C)=CC1CI` (stereo not drawn) [MKT-3001], for which the minimum inhibitory concentration (MIC) in assay [1] (setting [12]) was 0.39 µg/mL (≈ 0.577 µM); in [2] (setting [13]), 0.2 µg/mL (≈ 0.296 µM); in assay [3] (setting [14]), 0.2 µg/mL (≈ 0.296 µM); in assay [4] (setting [15]) it was >50 µg/mL; in [5] (setting [16]), 0.1 µg/mL (≈ 0.148 µM); in assay [6] (setting [17]), 0.2 µg/mL (≈ 0.296 µM). In addition, the minimal inhibitory concentration (MIC) in [7] (setting [18]) was 0.2 µg/mL (≈ 0.296 µM); in [8] (setting [19]), 50 µg/mL (≈ 74 µM); in assay [9] (setting [20]), 25 µg/mL (≈ 37 µM); in assay [10] (setting [21]), 0.2 µg/mL (≈ 0.296 µM); in [11] (setting [22]), 0.39 µg/mL (≈ 0.577 µM).
On to `CCC1OC(=O)CCC(C)C(OC2OC(C)CC(N(C)C)C2O)C(CC=O)CC(C)C(=O)C=CC(C)=CC1COC(=O)NCc1ccc(OC)cc1` (stereo not drawn) [MKT-1011], for which the MIC in assay [1] (setting [12]) was 0.1 µg/mL (≈ 0.137 µM); in assay [1] (setting [23]) it was 0.1 µg/mL (≈ 0.137 µM); in assay [2] (setting [13]) it was 0.1 µg/mL (≈ 0.137 µM); in assay [2] (setting [24]), 0.1 µg/mL (≈ 0.137 µM); in assay [3] (setting [14]), 0.2 µg/mL (≈ 0.274 µM); in assay [3] (setting [25]), 0.2 µg/mL (≈ 0.274 µM). For the same compound, the minimal inhibitory concentration (MIC) worked out at 50 µg/mL (≈ 68.6 µM) in assay [4] (setting [15]); 50 µg/mL (≈ 68.6 µM) in [4] (setting [26]); 0.1 µg/mL (≈ 0.137 µM) in assay [5] (setting [16]); 0.1 µg/mL (≈ 0.137 µM) in assay [5] (setting [27]); 0.1 µg/mL (≈ 0.137 µM) in assay [6] (setting [17]); 0.1 µg/mL (≈ 0.137 µM) in [6] (setting [28]). Besides, the MIC in [7] (setting [18]) turned out to be 0.1 µg/mL (≈ 0.137 µM); in assay [7] (setting [29]), 0.1 µg/mL (≈ 0.137 µM); in assay [8] (setting [19]), 6.25 µg/mL (≈ 8.57 µM); in assay [8] (setting [30]), 6.25 µg/mL (≈ 8.57 µM); in [9] (setting [20]) it was 1.56 µg/mL (≈ 2.14 µM); in assay [9] (setting [31]) it was 1.56 µg/mL (≈ 2.14 µM). Moreover, the MIC is 0.1 µg/mL (≈ 0.137 µM) in [10] (setting [21]), 0.1 µg/mL (≈ 0.137 µM) in assay [10] (setting [32]), 0.2 µg/mL (≈ 0.274 µM) in assay [11] (setting [22]) and 0.2 µg/mL (≈ 0.274 µM) in assay [11] (setting [33]).
As for `CCC1OC(=O)CCC(C)C(OC2OC(C)CC(N(C)C)C2O)C(CC=O)CC(C)C(=O)C=CC(C)=CC1COC(=O)Cc1ccccc1` (stereo not drawn) [MKT-2005], the MIC was 0.2 µg/mL (≈ 0.292 µM) in assay [1] (setting [12]); 0.2 µg/mL (≈ 0.292 µM) in assay [2] (setting [13]); 0.1 µg/mL (≈ 0.146 µM) in assay [3] (setting [14]); 0.78 µg/mL (≈ 1.14 µM) in assay [4] (setting [15]); 0.05 µg/mL (≈ 0.0731 µM) in assay [5] (setting [16]); <0.025 µg/mL in [6] (setting [17]). Moreover, the MIC was 0.1 µg/mL (≈ 0.146 µM) in assay [7] (setting [18]); 1.56 µg/mL (≈ 2.28 µM) in assay [8] (setting [19]); 3.13 µg/mL (≈ 4.58 µM) in [9] (setting [20]); 0.05 µg/mL (≈ 0.0731 µM) in assay [10] (setting [21]); 0.1 µg/mL (≈ 0.146 µM) in assay [11] (setting [22]).
